Values of other authors in paper PMC6304311 (Influenza and Other Respiratory Viruses, 2018).
“And” between values parts separate entries of the source, which are not always exact repeats. Equal values may be shown once. “Also recorded” adds a separate entry of the source.

Tests used:
Conditions in all cases: cited from earlier work
[1] = molecular target: NA from influenza A(H3N2) virus isolates (Influenza A virus, UniProt V5P6L4)
[2] = molecular target: NA from influenza A(H1N1) virus isolates (Influenza A virus, UniProt C0LLZ0)
[3] = molecular target: NA from influenza B virus isolates (Influenza B virus, UniProt A0A1S5RAG6)
influenza A(H3N2) = system: influenza A(H3N2)
[4] = system: seasonal influenza A(H1N1) viruses
[5] = system: NA from influenza A(H1N1)pdm09 virus isolates
[6] = system: Influenza A(H1N1)pdm09 H275Y‐resistant phenotype viruses
[7] = read-out: IC50, resistant phenotype reference virus

Row | Structure (SMILES) | susceptibility phenotype of reference virus [1] | IC50 [1, 7] [nM] | susceptibility phenotype of reference virus [2] | IC50 [2, 7] [nM] | susceptibility phenotype of reference virus [3] | effect of I215V NA substitution on susceptibility (influenza A(H3N2)) | frequency of resistance to inhibition (influenza A(H3N2)) | frequency of resistance globally [4] [%] | phenotype of isolates [4] | susceptibility phenotype of reference virus [5] | IC50 [5, 7] [nM] | patients with H275Y‐resistant phenotype viruses after treatment [6] [%]
1 | CCOC(=O)C1=C[C@@H](OC(CC)CC)[C@H](NC(C)=O)[C@@H](N)C1 [oseltamivir] | susceptible; also recorded: resistant | 5.24 | susceptible; also recorded: resistant | 93.2 | susceptible; also recorded: resistant | borderline reduction in susceptibility | 0.2% and 1.1% | 90 | phenotypically resistant | susceptible; also recorded: resistant | 70.6 | 2
2 | CC(=O)N[C@H]1[C@H]([C@H](O)[C@H](O)CO)OC(C(=O)O)=C[C@@H]1N=C(N)N [zanamivir] |  |  |  |  |  | borderline reduction in susceptibility |  |  |  |  |  | 
